Patent US20220031840A1, “Method of Treatment” (HaemaLogix Pty Ltd, priority 2018, published 2022)

Key:
Format in all cases: in vivo, human
CXCL9 = assay: Biomarker analysis: serum CXCL9; settings: adjusted for cytokine baseline differences
Experimental: (§1) Patient serum samples for biomarker analysis were collected approximately 30 minutes before infusion of kappamab and then at 6, 48, 192, and 1,080 hours after infusion for all patients. Samples were analysed in triplicate and serum levels of 48 human cytokines, chemokines, and growth factors were measured using the Bio-Plex Pro™ Human Cytokine 27-plex and 21-plex assays according to the manufacturer's recommendations (Bio-Rad, Carlsbad, Calif., USA; Cat No M10-0KCAF0Y, mg0-005KMII). Results were verified by repeating the 21-plex assay in triplicate and the samples were randomized across the assay plate. Pre-infusion samples were used as the baseline (t=0) for the analysis.
(§2) Multivariate analysis of the biomarker data was performed using R version 3.1.0 (2014-04-10) software (http://www.R-project.org/). Linear mixed effects modelling was completed using 1me4 (Bates et al. 2015). […]
(§3) To find significance between kappamab dose, time, and cytokine expression levels, we fitted a linear mixed-effects model that modelled cytokine fluorescence expression levels with fixed-effects terms for baseline cytokine fluorescence expression, kappamab dose (with 4 levels: 0.3, 1.0, 3.0, and 10 mg/kg), time (treated as factor with 5 levels), and cytokine with 48 levels, plus their interactions, with a random effect associated with patient (12 levels) and plex (2 levels). […]

serum M protein = assay: Serum M protein after kappamab
HGF = assay: Biomarker analysis: serum HGF; settings: adjusted for cytokine baseline differences
Experimental: as §1, §2, §3

serum λFLC = assay: Serum λFLC (FreeLite assay); settings: throughout the study
Excerpt: Serum FLC levels were quantified using the FreeLite™ assay (The Binding Site Group Ltd, Birmingham, UK). […] Twenty-four-hour urine collection for urine protein electrophoresis immunofixation, urine FLC measurement (FreeLite™ assay), and creatinine clearance were collected on the day of infusion and on Day 45.

multiple myeloma = assay: Myeloma response, 18FDG-PET scan
Experimental: FIG. 5. ^[…]-positron emission tomography (^18FDG-PET) scans for Patient 8 (who was receiving lenalidomide) prior to kappamab treatment (Panel A) and 30 days after intravenous infusion with 3.0 mg/kg kappamab (Panel B). ^18FDG-PET scanning was performed encompassing the skull vertex down to the knees on the combined PET/Computed Tomography (CT) scanner and a contemporaneous low-dose, non-contrast CT scan was performed for the purposes of attenuation correction and to provide anatomical correlation. […] In the spine, disease is most prominent within the sacrum. In the appendicular skeleton, disease is most pronounced within the proximal femur, where a prosthetic rod is in situ. No metabolically active disease is present outside the bones. In Panel B, ^18FDG-PET scanning was performed as before to assess the response 30 days after kappamab treatment. […] Low-grade uptake on the right lower lateral chest wall was […] and may reflect physiological muscular activity.
As patients only received a single infusion of kappamab it was not anticipated that any conventional responses would be observed.

In the case of “kappamab: humanized form of K121 anti-KMA antibody; VH SEQ ID NO: 1, VL SEQ ID NO: 2”, the “Change in serum concentration” value (CXCL9) is reported as “dose-related decreases”, the “Patients with minor dose-related decreases in serum M protein” value (serum M protein; 7/11 patients) is reported as 64% and the “Serum M protein response versus IMWG response criteria” value (serum M protein; in vivo) is reported as “did not meet the IMWG response criteria”. The “Change in serum concentration” value (HGF) was “dose-related decreases”, the “Serum λFLC concentration” value (serum λFLC) was “no apparent change” and the 18FDG-PET metabolic response (multiple myeloma; Patient 8 (receiving lenalidomide), 3 mg/kg, 30 days after infusion versus baseline scan, 3 mg/kg) was “favourable and almost complete metabolic response”. For the same substance, the Symptomatic improvement (multiple myeloma; Patient 8, 3 mg/kg) was “diminished bone pain and normalization of kidney function”.
